According to US20240132431A1, “METHOD FOR ALKYLATING ACIDIC FUNCTIONAL GROUP” (Chugai Seiyaku Kabushiki Kaisha, priority 2021, published 2024):

Biological target: T1, Bcl-2 protein (Recombinant Human Bcl-2 Protein) (Homo sapiens, UniProt P10415)
T1 construct: purchased Novus NBP2-34889
Test: Binding evaluation of mixture library compounds to Bcl-2 using AS-MS (affinity selection mass spectrometry)
Conditions: for ASMS ratio (%) n = 1 / ASMS ratio (%) n = 2: ASMS Ratio(%)=(A−C)/B×100; for ASMS ratio (%) n = 1: replicate n = 1; for ASMS ratio (%) n = 2: replicate n = 2
In short: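 Pooled library of ~1200 compounds ([…] each, final) incubated with recombinant human Bcl-2 (20 μM final) in Tris-HCl pH 7.4, NaCl, Tween-20, DTT buffer, dark, 23° C., 1 h. Bound fraction recovered by SEC spin column, organic extraction, reversed-phase LC/MS. ASMS Ratio (%) = (A−C)/B×100 versus protein-free standard and SEC blank.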

[1] = AS-MS, mixture of 1200 compounds, Bcl-2
[2] = AS-MS on the mixture of 1200 library compounds

T1 sequence (P10415 whole entry): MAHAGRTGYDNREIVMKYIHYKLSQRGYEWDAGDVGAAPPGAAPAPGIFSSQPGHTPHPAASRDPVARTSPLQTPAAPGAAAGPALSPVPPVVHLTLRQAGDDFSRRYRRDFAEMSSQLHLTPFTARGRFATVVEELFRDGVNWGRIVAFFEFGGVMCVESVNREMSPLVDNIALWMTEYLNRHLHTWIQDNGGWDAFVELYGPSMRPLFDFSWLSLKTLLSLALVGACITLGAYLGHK

ASMS ratio (%) (n = 1)	ASMS ratio (%) (n = 2)	Compound	other results
42.2	5.5	CCOc1cccc(C#Cc2ccccc2CN2CCN(c3ccc(C(=O)NS(=O)(=O)c4ccc(NCCSc5ccccc5)c(C(F)(F)F)c4)nn3)CC2)c1 [B2R095-01, 6-[4-[[2-[2-(3-Ethoxyphenyl)ethynyl]phenyl]methyl]piperazin-1-yl]-N-[4-(2-phenylsulfanylethylamino)-3-(trifluoromethyl)phenyl]sulfonylpyridazine-3-carboxamide]	–
0.0	−0.5	CCOc1cncc(-c2ccc(CN3CCN(c4ccc(C(=O)NS(=O)(=O)CCC(F)(F)F)cc4)CC3)cc2F)c1 [B2N052-01, 4-[4-[[4-(5-Ethoxypyridin-3-yl)-3-fluorophenyl]methyl]piperazin-1-yl]-N-(3,3,3-trifluoropropylsulfonyl)benzamide]	–
–	–	CCOc1cncc(-c2cc(CN3CCN(c4ccc(C(=O)NCC56CC7CC(CC(C7)C5)C6)nn4)CC3)cc(OCC)c2)c1 [B1A082-01, N-(1-Adamantylmethyl)-6-[4-[[3-ethoxy-5-(5-ethoxypyridin-3-yl)phenyl]methyl]piperazin-1-yl]pyridazine-3-carboxamide]	ASMS ratio (%) n = 1 [1]: 3.0%; ASMS ratio (%) n = 2 [1]: 0.2%
–	–	6-[4-[[4-(3-Ethoxyphenyl)-2-ethylphenyl]methyl]piperazin-1-yl]-N-propylpyridazine-3-carboxamide [B1M070-01]	ASMS ratio (%) n = 1 [1]: 0.0%; ASMS ratio (%) n = 2 [1]: 0.0%
–	–	CCOc1cccc(-c2cc(C(=O)N3CCN(c4ccc(C(=O)NS(=O)(=O)c5ccc(NCCSc6ccccc6)c([N+](=O)[O-])c5)cc4)CC3)cc(C(F)(F)F)c2)c1 [B2Q039-01, 4-[4-[3-(3-Ethoxyphenyl)-5-(trifluoromethyl)benzoyl]piperazin-1-yl]-N-[3-nitro-4-(2-phenylsulfanylethylamino)phenyl]sulfonylbenzamide]	ASMS ratio (%) n = 1 (AS-MS, mixture library, Bcl-2): 7.2%; ASMS ratio (%) n = 2 (AS-MS, mixture library, Bcl-2): 4.6%
–	–	CCOc1cccc(-c2csc(C(=O)N3CCN(c4ccc(C(=O)N(C)CC56CC7CC(CC(C7)C5)C6)cc4)CC3)c2)c1 [B3A023-01, N-(1-Adamantylmethyl)-4-[4-[4-(3-ethoxyphenyl)thiophene-2-carbonyl]piperazin-1-yl]-N-methylbenzamide]	ASMS ratio (%) n = 1 [2]: 2.4%; ASMS ratio (%) n = 2 [2]: 1.7%
0.0	19.5	CCOc1cccc(C#Cc2cncc(C(=O)N3CCN(c4ccc(C(=O)NS(=O)(=O)c5ccc(NCCSc6ccccc6)c(C(F)(F)F)c5)nn4)CC3)c2)c1 [B2R009-01, 6-[4-[5-[2-(3-Ethoxyphenyl)ethynyl]pyridine-3-carbonyl]piperazin-1-yl]-N-[4-(2-phenylsulfanylethylamino)-3-(trifluoromethyl)phenyl]sulfonylpyridazine-3-carboxamide]	–
−0.4	−1.0	CCOc1cncc(C#Cc2cncc(C(=O)N3CCN(c4ccc(C(=O)NS(=O)(=O)CCC(F)(F)F)cc4)CC3)c2)c1 [B2N032-01, 4-[4-[5-[2-(5-Ethoxypyridin-3-yl)ethynyl]pyridine-3-carbonyl]piperazin-1-yl]-N-(3,3,3-trifluoropropylsulfonyl)benzamide]	–
–	–	CCOc1cccc(-c2ccc(CN3CCN(c4ccc(C(=O)NS(=O)(=O)c5ccc(NCCSc6ccccc6)c([N+](=O)[O-])c5)cc4)CC3)cc2F)c1 [B2Q051-01, 4-[4-[[4-(3-Ethoxyphenyl)-3-fluorophenyl]methyl]piperazin-1-yl]-N-[3-nitro-4-(2-phenylsulfanylethylamino)phenyl]sulfonylbenzamide]	ASMS ratio (%) n = 1 (AS-MS, mixture library, Bcl-2): 22.6%; ASMS ratio (%) n = 2 (AS-MS, mixture library, Bcl-2): 2.1%
–	–	CCOc1cncc(-c2csc(C(=O)N3CCN(c4ccc(C(=O)N(CC)CC)nn4)CC3)c2)c1 [B4J002-01, 6-[4-[4-(5-Ethoxypyridin-3-yl)thiophene-2-carbonyl]piperazin-1-yl]-N,N-diethylpyridazine-3-carboxamide]	ASMS ratio (%) n = 1 [2]: −2.7%; ASMS ratio (%) n = 2 [2]: 2.1%
–	–	CCOc1cncc(-c2ccc(CN3CCN(c4ccc(C(=O)NCC(F)(F)F)nn4)CC3)c(CC)c2)c1 [B1K076-01, 6-[4-[[4-(5-Ethoxypyridin-3-yl)-2-ethylphenyl]methyl]piperazin-1-yl]-N-(2,2,2-trifluoroethyl)pyridazine-3-carboxamide]	ASMS ratio (%) n = 2 [1]: 0.0%
–	–	CCOc1cccc(-c2cc(C(=O)N3CCN(c4ccc(C(=O)NS(C)(=O)=O)nn4)CC3)cc(C(F)(F)F)c2)c1 [B2I017-01, 6-[4-[3-(3-Ethoxyphenyl)-5-(trifluoromethyl)benzoyl]piperazin-1-yl]-N-methylsulfonylpyridazine-3-carboxamide]	ASMS ratio (%) n = 1 (AS-MS, mixture library, Bcl-2): 0.0%; ASMS ratio (%) n = 2 (AS-MS, mixture library, Bcl-2): 0.0%
–	–	CCOc1cncc(-c2ccc(C(=O)N3CCN(c4ccc(C(=O)N(CC)CC)nn4)CC3)cc2C)c1 [B4J004-01, 6-[4-[4-(5-Ethoxypyridin-3-yl)-3-methylbenzoyl]piperazin-1-yl]-N,N-diethylpyridazine-3-carboxamide]	ASMS ratio (%) n = 1 [2]: −2.2%; ASMS ratio (%) n = 2 [2]: 0.4%
9.1	2.7	CCOc1cncc(-c2cc(C(=O)N3CCN(c4ccc(C(=O)NS(=O)(=O)c5ccc(NCCSc6ccccc6)c(C(F)(F)F)c5)nn4)CC3)cc(C(C)(C)C)c2)c1 [B2R016-01, 6-[4-[3-tert-Butyl-5-(5-ethoxypyridin-3-yl)benzoyl]piperazin-1-yl]-N-[4-(2-phenylsulfanylethylamino)-3-(trifluoromethyl)phenyl]sulfonylpyridazine-3-carboxamide]	–
–	–	CCOc1cncc(-c2cc(C(=O)N3CCN(c4ccc(C(=O)NS(=O)(=O)c5ccc(NCCSc6ccccc6)c([N+](=O)[O-])c5)nn4)CC3)cc(C(F)(F)F)c2)c1 [B2Q018-01, 6-[4-[3-(5-Ethoxypyridin-3-yl)-5-(trifluoromethyl)benzoyl]piperazin-1-yl]-N-[3-nitro-4-(2-phenylsulfanylethylamino)phenyl]sulfonylpyridazine-3-carboxamide]	ASMS ratio (%) n = 2 (AS-MS, mixture library, Bcl-2): 0.0%
0.0	4.8	CCOc1cncc(C#Cc2ccccc2C(=O)N2CCN(c3ccc(C(=O)NS(=O)(=O)c4ccc(NCCSc5ccccc5)c(C(F)(F)F)c4)cc3)CC2)c1 [B2R030-01, 4-[4-[2-[2-(5-Ethoxypyridin-3-yl)ethynyl]benzoyl]piperazin-1-yl]-N-[4-(2-phenylsulfanylethylamino)-3-(trifluoromethyl)phenyl]sulfonylbenzamide]	–
16.7	21.2	CCOc1cncc(-c2ccc(CN3CCN(c4ccc(C(=O)NS(=O)(=O)c5ccc(NCCSc6ccccc6)c(C(F)(F)F)c5)nn4)CC3)c(OC)c2)c1 [B2R080-01, 6-[4-[[4-(5-Ethoxypyridin-3-yl)-2-methoxyphenyl]methyl]piperazin-1-yl]-N-[4-(2-phenylsulfanylethylamino)-3-(trifluoromethyl)phenyl]sulfonylpyridazine-3-carboxamide]	–
–	–	4-[4-[2-[2-(3-Ethoxyphenyl)ethynyl]benzoyl]piperazin-1-yl]-N-propylbenzamide [B1M097-01]	ASMS ratio (%) n = 1 [2]: 1.1%; ASMS ratio (%) n = 2 [2]: 0.3%
0.0	0.0	CCOc1cccc(-c2ccccc2CN2CCN(c3ccc(C(=O)NS(=O)(=O)CCC(F)(F)F)nn3)CC2)c1 [B2N071-01, 6-[4-[[2-(3-Ethoxyphenyl)phenyl]methyl]piperazin-1-yl]-N-(3,3,3-trifluoropropylsulfonyl)pyridazine-3-carboxamide]	–
1.8	−0.3	CCOc1cncc(-c2ccc(CN3CCN(c4ccc(C(=O)NS(=O)(=O)C(C)(C)C)nn4)CC3)c(CC)c2)c1 [B2L076-01, N-tert-Butylsulfonyl-6-[4-[[4-(5-ethoxypyridin-3-yl)-2-ethylphenyl]methyl]piperazin-1-yl]pyridazine-3-carboxamide]	–
0.0	0.0	CCOc1cccc(-c2ccccc2CN2CCN(c3ccc(C(=O)NS(=O)(=O)C(C)(C)C)cc3)CC2)c1 [B2L045-01, N-tert-Butylsulfonyl-4-[4-[[2-(3-ethoxyphenyl)phenyl]methyl]piperazin-1-yl]benzamide]	–
–	–	CCOc1cncc(C#Cc2ccccc2CN2CCN(c3ccc(C(=O)NCC45CC6CC(CC(C6)C4)C5)cc3)CC2)c1 [B1A070-01, N-(1-Adamantylmethyl)-4-[4-[[2-[2-(5-ethoxypyridin-3-yl)ethynyl]phenyl]methyl]piperazin-1-yl]benzamide]	ASMS ratio (%) n = 1 [1]: 0.0%; ASMS ratio (%) n = 2 [1]: 0.0%
–	–	CCOc1cccc(C#Cc2ccccc2CN2CCN(c3ccc(C(=O)NCC45CC6CC(CC(C6)C4)C5)cc3)CC2)c1 [B1A069-01, N-(1-Adamantylmethyl)-4-[4-[[2-[2-(3-ethoxyphenyl)ethynyl]phenyl]methyl]piperazin-1-yl]benzamide]	ASMS ratio (%) n = 1 [1]: 8.3%; ASMS ratio (%) n = 2 [1]: 0.8%
0.0	0.0	CCOc1cncc(-c2cc(OC)c(CN3CCN(c4ccc(C(=O)NS(C)(=O)=O)cc4)CC3)c(OC)c2)c1 [B2I060-01]	–

Compound	ASMS ratio (%) (n = 1)	ASMS ratio (%) (n = 2)	other results
CCOc1cncc(-c2ccc(CN3CCN(c4ccc(C(=O)NS(=O)(=O)C(C)(C)C)cc4)CC3)cc2F)c1 [B2L052-01]	2.7	1.0	–
